Values of other authors, collected in US20230364032A1, “USE OF 2-HOBA TO TREAT ATHEROSCLEROSIS” (Vanderbilt University, priority 2020, published 2023).
Like-named read-outs stand apart in the source and are kept apart here.

Tests used:
[1] = system: Apoe−/− mice; settings: cited from earlier work; for effect on atherosclerotic lesions: streptozotocin-treated Apoe−/− mice
[2] = target: T1, IL-1β (Homo sapiens, UniProt P01584); settings: humans with prior MI and elevated hsCRP; cited from earlier work
T1 construct: host or cells: patients of a clinical trial (endogenous protein)

For `Cc1c(C)c2c(c(C)c1O)CC[C@@](C)(CCC[C@H](C)CCC[C@H](C)CCCC(C)C)O2` [alpha tocopherol], the effect on atherosclerosis ([1]; Apoe−/− mice) is listed as “reduces” and the “effect on urine F2-IsoP levels” value ([1]; Apoe−/− mice) is listed as “reduces”.

For `N=C(N)NN` [aminoguanidine], the “effect on atherosclerotic lesions” value [1] is listed as “reduce atherosclerotic lesions”.

In the case of `NCCC(=O)N[C@@H](Cc1cnc[nH]1)C(=O)O` [carnosine], the effect on atherosclerosis ([1]; Apoe−/− mice or streptozotocin-treated Apoe−/− mice) is listed as “reduce atherosclerosis”.

In the case of `Cc1ncc(CO)c(CN)c1O` [pyridoxamine], the “effect on atherosclerotic lesions” value [1] is listed as “reduce atherosclerotic lesions”.

In the case of “canakinumab: an IL-1β neutralizing monoclonal antibody”, the cardiovascular event rates [2] is listed as “reduce cardiovascular event rates”.
